Experimental data as given in ChEMBL document CHEMBL5543137, “Design and Synthesis of Novel Ultralong-Acting Peptides as EDP-EBP Interaction Inhibitors for Pulmonary Fibrosis Treatment” (J Med Chem, 2024).
The source made the active and inactive calls. The calls are words filed in the database; no cut-off is given here.

What was measured:
Mus musculus = assay: Antifibrotic activity against BLM-induced C57BL/6 mouse pulmonary fibrosis model assessed as improvement in lung condition at 30 mg/kg, po administered for 2 weeks starting from 7 days post BLM induction and measured after 21 days post BLM induction; type: functional, organism-based
[1] = Half-life in Sprague-Dawley rat serum at 600 ug/kg, sc administered as single dose measured upto 10 days by LC-MS/MS method; type: ADME, organism-based; settings: 0.6 mg/kg, dose 600 µg/kg, time < 10 day
[2] = Tmax in Sprague-Dawley rat serum at 600 ug/kg, sc administered as single dose measured upto 10 days by LC-MS/MS method; type: ADME, organism-based; settings: 0.6 mg/kg, dose 600 µg/kg, time < 10 day
[3] = Binding affinity to EBP (unknown origin) by ITC method; set-up: species or system Homo sapiens

half-life [1] [min] | Tmax [2] [min] | Kd [3] [µM] | Compound | Activity (Mus musculus)
 |  |  | COC(=O)c1ccc2c(c1)NC(=O)/C2=C(\Nc1ccc(N(C)C(=O)CN2CCN(C)CC2)cc1)c1ccccc1 | Active
5.88 | 4.98 | 539 | H-VVGSPSAQDEASPL-NH2 | 
